≈ marks a conversion by molar mass, not a printed value.
What was measured:
[1] = Human Liver Microsomal Stability (Test C); type: in vitro ADME; conditions: human, liver microsomes
Outline: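 CLint (μl/min/mg protein) derived from compound depletion in human liver microsomes following a published standardized early-DMPK protocol; replicate determinations given as arithmetic mean.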

human RXFP1 = biological target: T1, human RXFP1 (Homo sapiens, UniProt Q9HBX9); assay: RXFP1 Hu cAMP (Test A); type: cell-based; parameters: expressed in transfected cells; host or cells: Jump-In T-REx CHO-K1 cells (ThermoFisher), induced with 10 ng/ml doxycycline for 24 h; conditions: RXFP1 Hu cAMP; for EC50: read-out: Test A EC50
T1 sequence (Q9HBX9 1-757): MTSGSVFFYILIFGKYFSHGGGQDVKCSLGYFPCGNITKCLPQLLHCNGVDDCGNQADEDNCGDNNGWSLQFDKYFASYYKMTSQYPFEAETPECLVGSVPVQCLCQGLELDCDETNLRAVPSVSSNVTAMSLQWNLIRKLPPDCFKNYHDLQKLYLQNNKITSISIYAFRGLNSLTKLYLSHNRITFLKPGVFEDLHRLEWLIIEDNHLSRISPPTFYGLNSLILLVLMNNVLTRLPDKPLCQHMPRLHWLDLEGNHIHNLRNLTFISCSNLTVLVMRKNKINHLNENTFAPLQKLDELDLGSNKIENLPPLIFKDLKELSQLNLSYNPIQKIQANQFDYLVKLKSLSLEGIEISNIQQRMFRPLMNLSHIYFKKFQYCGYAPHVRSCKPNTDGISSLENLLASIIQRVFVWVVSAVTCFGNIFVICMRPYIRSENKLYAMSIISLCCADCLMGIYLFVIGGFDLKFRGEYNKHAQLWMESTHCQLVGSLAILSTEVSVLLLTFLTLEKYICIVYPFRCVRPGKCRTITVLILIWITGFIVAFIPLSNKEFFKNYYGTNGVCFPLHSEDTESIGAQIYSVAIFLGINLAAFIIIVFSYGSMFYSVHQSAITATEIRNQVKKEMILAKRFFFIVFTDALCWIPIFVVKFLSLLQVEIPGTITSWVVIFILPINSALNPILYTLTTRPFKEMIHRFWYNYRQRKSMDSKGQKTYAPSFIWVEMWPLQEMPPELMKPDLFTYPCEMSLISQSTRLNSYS
Outline: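 Cells: CHO-K1 stably carrying human RXFP1, expressed after 24 h 10 ng/ml doxycycline; 0.5 mM IBMX final, HTRF detection after 2 h at room temperature.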

[2] = Human Plasma Protein Binding (Test B); type: in vitro ADME; conditions: fraction unbound (fu)
Outline: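 Values given as % free (fu) in human plasma, using the method of Wernevik et al. (2020). For compounds tested more than once, the arithmetic mean is given.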

[3] = Rat Hepatocyte Stability (Test E); type: in vitro ADME; conditions: rat, hepatocytes, geometric mean if run multiple times
Outline: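 Intrinsic clearance in rat hepatocytes, expressed as μl/min/10^6 cells, following the literature integrated DMPK panel method. Repeat determinations combined as geometric mean.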

Solubility (Test F) = type: physicochemical; conditions: arithmetic mean if run multiple times
Experimental: The assay was conducted according to the Solubility Assay described in pages 164-167 of Wernevik, J. et al., “A Fully Integrated Assay Panel for Early Drug Metabolism and Pharmacokinetics Profiling”, Assay and Drug Development Technologies, 2020, 18(4), 157-179. Data are reported in Table 36 as solubility ([…]. Where the assay was run multiple times for the same compound, the arithmetic mean is reported.

Structure (SMILES) | microsomal CLint [1] | Test A Sinf (human RXFP1) | EC50 (human RXFP1) | Test B Human Plasma Protein Binding (% free) [2] | hepatocyte CLint [3] | solubility (Solubility (Test F))
CCCC1(CNC(=O)[C@H]2[C@@H]3CC[C@@H](C3)[C@H]2NC(=O)c2cc(O[C@H]3CC[C@@](C)(C(=O)O)CC3)c(C#N)cc2OC)CCC1 [Example 83] | 130 µL/min/mg | 111% | 17 nM | 1.6 % free | 25 µL/min/1e6 cells | 250 µM (≈ 145 µg/mL)
COc1cc(F)c(O[C@H]2CC[C@@H](C(=O)O)CC2)cc1C(=O)N[C@@H]1[C@H]2CC[C@H](C2)[C@@H]1C(=O)Nc1ccc(S(F)(F)(F)(F)F)cc1 [Example 183] | 23 µL/min/mg | 99% | 420 nM | 0.50 % free | 13 µL/min/1e6 cells | 50 µM (≈ 32.5 µg/mL)
COc1cc(F)c(O[C@H]2CC[C@@H](C(=O)O)CC2)cc1C(=O)N[C@@H]1[C@H]2CC[C@H](C2)[C@@H]1C(=O)Nc1cccc(S(F)(F)(F)(F)F)c1 [Example 182] | 34 µL/min/mg | 107% | 19 nM | 0.45 % free | 35 µL/min/1e6 cells | 200 µM (≈ 130 µg/mL)
COc1cc(F)c(O[C@H]2CC[C@@](C)(C(=O)O)CC2)cc1C(=O)N[C@@H]1CCC[C@@H]1C(=O)NCC1(C)CC1 [Example 68] | 4.4 µL/min/mg | 97% | 840 nM | 14 % free | 14 µL/min/1e6 cells | > 1000 µM
COc1cc(F)c(O[C@H]2CC[C@@H](C(=O)O)CC2)cc1C(=O)N[C@@H]1[C@H]2CC[C@H](C2)[C@@H]1C(=O)Nc1cccc(Cl)c1 [Example 25] | 31 µL/min/mg | 102% | 420 nM | 0.59 % free | 130 µL/min/1e6 cells | 440 µM (≈ 246 µg/mL)
CCOCC1(CNC(=O)[C@H]2[C@@H]3CC[C@@H](C3)[C@H]2NC(=O)c2cc(O[C@H]3CC[C@@](C)(C(=O)O)CC3)c(C#N)cc2OC)CCC1 [Example 104] | 59 µL/min/mg | 122% | 270 nM | 6.4 % free | 28 µL/min/1e6 cells | 920 µM (≈ 548 µg/mL)
COc1cc(C#N)c(O[C@H]2CC[C@@H](C(=O)O)CC2)cc1C(=O)N[C@@H]1[C@H]2CC[C@H](C2)[C@@H]1C(=O)Nc1cccc(S(=O)(=O)C(F)(F)F)c1 [Example 467, (1S,4s)-4-(2-Cyano-4-methoxy-5-(((1S,2R,3S,4R)-3-((3-((trifluoromethyl)sulfonyl)phenyl)carbamoyl)bicyclo[2.2.1]heptan-2-yl)carbamoyl)phenoxy)cyclohexane-1-carboxylic acid] | 37 µL/min/mg | 99% | 19 nM | 3.7 % free | 47 µL/min/1e6 cells | > 1000 µM
COc1cc(F)c(O[C@H]2CC[C@@H](C(=O)O)CC2)cc1C(=O)N[C@@H]1[C@H]2CC[C@H](C2)[C@@H]1C(=O)Nc1ccc(C)c(C#N)c1 [Example 19] | 17 µL/min/mg | 97% | 470 nM | 2.3 % free | 93 µL/min/1e6 cells | 630 µM (≈ 355 µg/mL)
COc1cc(F)c(O[C@H]2CC[C@@H](C(=O)O)CC2)cc1C(=O)N[C@@H]1[C@H]2CC[C@H](C2)[C@@H]1C(=O)Nc1cccc(OC(F)(F)F)c1F [Example 18] | 27 µL/min/mg | 105% |  | 1.2 % free | 49 µL/min/1e6 cells | 400 µM (≈ 251 µg/mL)
COc1cc(F)c(O[C@H]2CC[C@@H](C(=O)O)CC2)cc1C(=O)N[C@@H]1[C@H]2CC[C@H](C2)[C@@H]1C(=O)Nc1ccc(F)c(OC(F)(F)F)c1 [Example 21] | 39 µL/min/mg | 110% |  | 0.55 % free | 28 µL/min/1e6 cells | 850 µM (≈ 533 µg/mL)
COc1cc(F)c(-c2ccc([C@@H]3C[C@H]3C(=O)O)nc2)cc1C(=O)N[C@@H]1[C@H]2CC[C@H](C2)[C@@H]1C(=O)Nc1cccc(S(=O)(=O)C(F)(F)F)c1 (single isomer, unassigned) [Example 261, (1R*,2R*)-2-(5-(2-Fluoro-4-methoxy-5-(((1S,2R,3S,4R)-3-((3-((trifluoromethyl)sulfonyl)phenyl)carbamoyl)bicyclo[2.2.1]heptan-2-yl)carbamoyl)phenyl)pyridin-2-yl)cyclopropane-1-carboxylic acid] | 57 µL/min/mg | 107% | 130 nM | 0.89 % free | 84 µL/min/1e6 cells | > 1000 µM
COc1cc(F)c(O[C@H]2CC[C@@H](C(=O)O)CC2)cc1C(=O)N[C@@H]1[C@H]2CC[C@H](C2)[C@@H]1C(=O)NC12CC(C1)C2 [Example 178] | 8.6 µL/min/mg | 95% | > 2700 nM | 17 % free | 39 µL/min/1e6 cells | > 1000 µM
COc1cc(F)c(-c2ccc(C(=O)O)cc2)cc1C(=O)N[C@@H]1[C@H]2CC[C@H](C2)[C@@H]1C(=O)Nc1ccc(S(F)(F)(F)(F)F)cc1 [Example 210, 2′-Fluoro-4′-methoxy-5′-(((1S,2R,3S,4R)-3-((4-(pentafluoro-λ^6-sulfaneyl)phenyl)carbamoyl)bicyclo[2.2.1]heptan-2-yl)carbamoyl)-[1,1′-biphenyl]-4-carboxylic acid] | < 3 µL/min/mg | 50% | > 3600 nM | 0.049 % free | 10 µL/min/1e6 cells | 67 µM (≈ 42.1 µg/mL)
COc1cc(F)c(O[C@H]2CC[C@@H](C(=O)O)CC2)cc1C(=O)N[C@@H]1[C@H]2CC[C@H](C2)[C@@H]1C(=O)Nc1ccnc(C(F)(F)F)c1 [Example 12, (1S,4s)-4-(2-Fluoro-4-methoxy-5-(((1S,2R,3S,4R)-3-((2-(trifluoromethyl)pyridin-4-yl)carbamoyl)bicyclo[2.2.1]heptan-2-yl)carbamoyl)phenoxy)cyclohexane-1-carboxylic acid] | 23 µL/min/mg | 107% | 410 nM | 2.7 % free | 64 µL/min/1e6 cells | 850 µM (≈ 505 µg/mL)
COc1cc(C#N)c(O[C@H]2CC[C@@](C)(C(=O)O)CC2)cc1C(=O)N[C@@H]1[C@H]2CC[C@H](C2)[C@@H]1C(=O)NC12CC3C[C@H](C1)C[C@H](C3)C2 [Example 81] | 97 µL/min/mg | 111% | 31 nM | 2.7 % free | 57 µL/min/1e6 cells | 250 µM (≈ 151 µg/mL)
